Results on 4 molecules are retold here after the NIST ThermoML archive (doi:10.1016/j.fluid.2014.05.006).

Each structure is given as a SMILES string. Numbers after ± are expanded uncertainties.

Data set [1] can be described thus: relative permittivity at zero frequency (dimensionless). Conditions: 298 K; 94.77 kPa; Liquid; Parallel plate capacitor.
A short description of data set [2]: relative permittivity at zero frequency (dimensionless); xn = mol fraction of the nth substance listed. Conditions: 298 K, 94.77 kPa, Liquid, Parallel plate capacitor.

On to `Cn1ccnc1` [1-methylimidazole], for which the “relative permittivity at zero frequency” value in data set [1] is listed as 39.78 ± 4.2.

Consider `Cn1ccnc1` [1-methylimidazole] + O, for which the “relative permittivity at zero frequency” value in data set [2] (x2 = 0) was 39.78 ± 4.2; in data set [2] (x2 = 0.1), 40.98 ± 4.3; in data set [2] (x2 = 0.2), 42.55 ± 4.5; in data set [2] (x2 = 0.3) it was 45.87 ± 4.9; in data set [2] (x2 = 0.4), 46.02 ± 4.9; in data set [2] (x2 = 0.5), 48.53 ± 5.2. The “relative permittivity at zero frequency” value in data set [2] (x2 = 0.6) was determined as 50.04 ± 5.3; in data set [2] (x2 = 0.7) it was 50.99 ± 5.4; in data set [2] (x2 = 0.8), 52 ± 5.5; in data set [2] (x2 = 0.9), 53.01 ± 7.5.

With `O` [water], in data set [1], the “relative permittivity at zero frequency” value is reported as 80 ± 8.5.

Take `O` [water] + Cn1ccnc1: the “relative permittivity at zero frequency” value in data set [2] (x1 = 1) was 80 ± 8.5.
